Measurements taken from patent publication US10752591B2, “18-20 member bi-polycyclic compounds” (Haro Pharmaceutical Inc., priority 2014, dated 2020).

Experiments:
purified rat liver HDAC = purified rat liver HDAC inhibition; format: biochemical; conditions: relative to compound 17
Experimental: The effect of compounds on the enzymatic activity of purified recombinant human HDAC-1, -2, -3, -6, and -8 activity and of purified rat liver HDAC was examined by measuring the deacetylation of synthetic peptides in various preparations of HDACs. HDAC assays were performed using a two-step enzymatic reaction where enzyme activity is correlated to the release of […] (AMC). AMC fluorescence is measured in a fluorescent plate reading using λex380 nm and λen440 nm.
The reaction was allowed to proceed for 40 min at 37° C., after which developer solution (0.5% trypsin, 10 μM trichostatin A (TSA)) was added to obtain a final concentration of 0.1% trypsin, 2 μM TSA. After 30 minutes at room temperature, the amount of free fluorogenic AMC was measured as described above.

mouse pharmacokinetics = format: in vivo; conditions: mice
Experimental: Mouse pharmacokinetics studies were conducted in female athymic nude or male C57/B6 mice (n=3). Due to its very poor aqueous solubility, compound 17 was formulated in 66% PEG-400/33% H2O-1% Tween-80. In contrast compound 13 was formulated in 66% PEG-400/33% H2O. Compounds were administered PO (30 mg/kg) or IV (5 mg/kg), and plasma concentrations were measured by UV/HPLC.

RXR = assay: RXR-mediated transcription, RXRE luciferase reporter in MCF7 cells; format: cell-based
Excerpt: (§1) The effect of various compounds of the invention on RAR-mediated transcription in MCF7 breast cancer cells was examined by measuring their effect on the transcription of a luciferase reporter gene under the control of a TK promoter placed downstream of a RAR response element. In addition, the effect of the compounds on the closely related RXR-mediated transcription was examined by measuring their effect on the transcription of a luciferase reporter gene under the control of a TK promoter placed downstream of a RXR response element.
(§2) Typically, 10,000 cells were plated in 96 wells plates in phenol red-free RPMI medium supplemented with 10% charcoal-stripped Fetal Bovine Serum. After 24 hours, cells were transfected with 0.1 μg of luciferase reporter plasmid and 0.01 μg of a reporter plasmid expressing renilla luciferase (RLuc) gene under the control of a SV40 promoter, using Fugene 6 transfection reagent (0.5 μl/well Promega Corporation). Cells were treated in triplicate with compounds or vehicle (DMSO) for 24 hours. Luciferase and renilla luciferase activities were measured using Dual-Glo reagent (Promega Corporation). Luciferase activity was normalized in each well for renilla activity.

RAR = assay: RAR-mediated transcription, RARE-tk luciferase reporter in MCF7 cells; format: cell-based
Excerpt: as §1, §2

aqueous solubility = format: physicochemical
Lys382 acetylated p53 = assay: intracellular acetylation of p53 in IMR-32 cells (western blot); format: cell-based; conditions: 1 μM or 5 μM, 16 hours
Experimental: (§3) The effect of certain compounds on intracellular acetylation of target proteins was tested in high risk neuroblastoma cells, BE-2C and IMR-32 cells.
IMR32 cells were grown to confluence in phenol-red-free RPMI media supplemented with 10% es grade FBS and 2.5 mM Ala-Glu. Cells were treated with DMSO or 1 μM or 5 μM compound 13 in DMSO for 16 hours. Protein extracts were prepared in RIPA buffer in the presence of protease and phosphatase inhibitors. Proteins were separated on a 4-20% gel by PAGE and transferred to a nitrocellulose membrane.
(§4) Beta actin, total and Lys382 acetylated p53, and Lys40 acetylated alpha, and total tubulin were detected using antibodies (Cell Signaling #8557, #2524 #2525, #12152 and #2144 respectively) using manufacturer recommended conditions.

[1] = system: Lys40 acetylated alpha tubulin; assay: intracellular acetylation of alpha-tubulin in BE-2C cells; format: cell-based
Experimental: as §3
BE-2C cells were grown to confluence in phenol-red-free RPMI media supplemented with 10% FBS and 2.5 mM Ala-Glu. […] Total and Lys 40 acetylated alpha tubulin were detected using specific antibodies.
as §4

C2Cl2 cells [2] = assay: myoblast fusion in long term C2Cl2 cultures (MHC immunocytochemistry); format: cell-based; conditions: long-term culture, suboptimal RPMI media with 2% horse serum
Experimental: The effect of compounds on myoblast fusion was examined in C2Cl2 cells maintained in RPMI media supplemented with 2% horse serum. C2Cl2 myoblastic cells where purchased from the American Type Culture Collection (ATCC) and maintained undifferentiated in RPMI media (Corning) supplemented with 2 mM L-Alanine-L-Glutamine (ATCC) and 1 mM pyruvate (Corning). Undifferentiated cells where maintained below 70% confluence. For long term cultures and compound treatment, cells where plated at high density CellBIND Culture Dishes (corning 3294, 3296, 3337) and in RPMI supplemented with 2% Horse Serum (Gibco) and 2 mM L-Alanine-L-Glutamine (ATCC) and 1 mM pyruvate (Corning). Compounds were dissolved in DMSO at 1000 time the final concentration and diluted 1-in-1000 in the media covering the cells. Media and compounds were changed daily. For immunocytochemistry, cells were fixed in 2% PFA in HBSS for 10 minutes and left in HBSS at 4° under humidified atmosphere and processed for immunocytochemistry. For myosin heavy chain detection (MHC), cells were first incubated in 100 ul-1 ml 0.15 M Glycine in DPBS for 10 minutes, rinse with DPBS. 100 ul-1 ml 0.5% Triton-X in DPBS was added for 10 minutes, rinsed with DPBS, and followed by incubation with 100 ul blocking agent (10% goat serum in DPBS) for 30 min at room temperature. MF20 primary antibody in 10% goat serum in DPBS was added at 1/60 dilution for 30 min at room temperature and rinsed three times with 100 ul DPBS. IgG2b goat anti mouse secondary antibody (Jackson Immuno-Research) was added at 1:1000 in 10% goat serum in DPBS for exactly 30 min at room temperature then rinsed 3 times with 100 ul DPBS. A final rinse in H2O was performed and cells were covered with two drops of Elvanol and cover gently with cover slip and allowed to dry in the dark for 24-48 hours.

C2Cl2 cells [3] = assay: Q-RT PCR of myofiber-degradation associated genes in long term C2Cl2 cultures; format: cell-based; conditions: day 10, normalized for RPLP0
Experimental: Quantitative RT-PCR was performed on RNA prepared from cell treated as in Example 9. At day 10 of the experiment, cells were rinsed in HBSS (without calcium or magnesium) and RNA was prepared using FastLane Cell cDNA Kit (Qiagen). Quantitative PCR was performed using Eppendorf and SYBR amplification mix (Sigma-Aldrich) using the gene specific primer combination given in Table 3. Data were normalized for ribosomal housekeeping gene RPLP0

[4] = PO (30 mg/kg) or IV (5 mg/kg), route per parameter not stated

CC1(C)CCC(C)(C)c2cc(-c3cc4cc(C(=O)NO)ccc4[nH]3)ccc21 [Compound 13]
times more potent than compound 17 in inhibition of purified rat hepatic HDAC (purified rat liver HDAC): seventy
T max compared with compound 17 (mouse pharmacokinetics): markedly reduced
oral bioavailability, AUC, Cmax compared with compound 17 (mouse pharmacokinetics): markedly higher
AUC0-∞ (mouse pharmacokinetics; [4]): 42.00 µM·h
CLp (mouse pharmacokinetics; [4]): 0.24 mL/min/kg
Cmax (mouse pharmacokinetics; [4]): 5.54 µM
MRT (mouse pharmacokinetics; [4]): 6.9 h
Tmax (mouse pharmacokinetics; [4]): 1.4 h
Vd,ss (mouse pharmacokinetics; [4]): 8 L/kg
transcriptional activation of RXR / RXRE-promoter (RXR): none
RARE-dependent luciferase expression (RAR): activated
times more potent than compound 17 in activating RARE-tk_luc reporter (RAR; relative to compound 17): five to ten
aqueous solubility (aqueous solubility): improved
lysine acetylated p53 level (Lys382 acetylated p53): pronounced accumulation of lysine acetylated p53
alpha tubulin acetylation by LC-MS analysis [1]: lack of increased alpha tubulin acetylation
Lysin (K) 40 alpha-Tubulin acetylation ([1]; 5 μM, 16 hours): no significant acetylation
fusion of single cells into multinucleated C2Cl2 myotubes (C2Cl2 cells [2]): enhances the fusion
expression of Atrogin (C2Cl2 cells [3]): downregulates
expression of myogenin (C2Cl2 cells [3]): downregulates
